From PubChem BioAssay (NCI)
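The compound was tested at five concentrations on cells cultured in 96-well plates, with a 48-hour exposure period. GI50 is the concentration that inhibits growth by half. TGI marks complete inhibition of growth.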

Columns and labels:
Test in all cases: NCI tumour cell line growth inhibition, 48 h
[1] = tested on: A498 renal
[2] = tested on: A549 NSCLC
[3] = tested on: ACHN renal
[4] = tested on: BT-549 breast
[5] = tested on: CAKI-1 renal
[6] = tested on: COLO 205 colon
[7] = tested on: DU-145 prostate
[8] = tested on: HCC-2998 colon
[9] = tested on: HCT-15 colon
[10] = tested on: HL-60(TB) leukemia
[11] = tested on: HOP-62 NSCLC
[12] = tested on: HOP-92 NSCLC
[13] = tested on: HS 578T breast
[14] = tested on: HT29 colon
[15] = tested on: IGROV1 ovarian
[16] = tested on: K-562 leukemia
[17] = tested on: KM12 colon
[18] = tested on: LOX IMVI melanoma
[19] = tested on: M14 melanoma
[20] = tested on: MALME-3M melanoma
[21] = tested on: MCF7 breast
[22] = tested on: MDA-MB-231 breast
[23] = tested on: MDA-MB-435
[24] = tested on: MOLT-4 leukemia
[25] = tested on: NCI-H226 lung
[26] = tested on: NCI-H460 lung
[27] = tested on: NCI-H522 lung
[28] = tested on: NCI/ADR-RES ovarian
[29] = tested on: OVCAR-3 ovarian
[30] = tested on: OVCAR-4 ovarian
[31] = tested on: OVCAR-5 ovarian
[32] = tested on: PC-3 prostate
[33] = tested on: RPMI-8226 leukemia
[34] = tested on: RXF 393 renal
[35] = tested on: SF-295 CNS
[36] = tested on: SF-539 CNS
[37] = tested on: SK-MEL-2 melanoma
[38] = tested on: SK-MEL-28 melanoma
[39] = tested on: SK-MEL-5 melanoma
[40] = tested on: SK-OV-3 ovarian
[41] = tested on: SN12C renal
[42] = tested on: SNB-75 CNS
[43] = tested on: SR leukemia
[44] = tested on: SW-620 colon
[45] = tested on: T-47D breast
[46] = tested on: TK-10 renal
[47] = tested on: U251 CNS
[48] = tested on: UACC-257 melanoma
[49] = tested on: UACC-62 melanoma
[50] = tested on: UO-31 renal

In the case of `COc1cc(/C=N/Nc2ccnc3cc(Cl)ccc23)cc(OC)c1O`, the GI50 [1] is reported as 18.9 µM, the TGI [1] is reported as 38.5 µM and the GI50 [2] is reported as 1.74 µM. The TGI [2] was 3.21 µM, the GI50 [3] was 1.83 µM and the TGI [3] was 3.23 µM. For the same compound, the GI50 [4] was 1.75 µM, the TGI [4] was 3.27 µM and the GI50 [5] was 1.66 µM. The TGI [5] was 3.02 µM, the GI50 [6] was 1.86 µM and the TGI [6] was 3.42 µM. It also gave a GI50 [7] of 1.9 µM, a TGI [7] of 3.61 µM and a GI50 [8] of 1.73 µM. It also gave a TGI [8] of 3.23 µM, a GI50 [9] of 1.78 µM and a TGI [9] of 3.43 µM. It also gave a GI50 [10] of 1.89 µM, a TGI [10] of 3.86 µM and a GI50 [11] of 1.69 µM. For the same compound, the TGI [11] was 3.13 µM, the GI50 [12] was 1.44 µM and the TGI [12] was 2.89 µM. For the same compound, the GI50 [13] was 2.03 µM, the TGI [13] was 4.44 µM and the GI50 [14] was 1.81 µM. For the same compound, the TGI [14] was 3.34 µM, the GI50 [15] was 1.85 µM and the TGI [15] was 3.63 µM. The GI50 [16] was 1.63 µM, the TGI [16] was 3.46 µM and the GI50 [17] was 2.39 µM. It also gave a TGI [17] of 6.05 µM, a GI50 [18] of 2.15 µM and a TGI [18] of 3.65 µM. The GI50 [19] was 1.76 µM, the TGI [19] was 3.22 µM and the GI50 [20] was 1.87 µM. The TGI [20] was 3.44 µM, the GI50 [21] was 1.58 µM and the TGI [21] was 3.37 µM. It also gave a GI50 [22] of 2.05 µM, a TGI [22] of 4.05 µM and a GI50 [23] of 1.69 µM. For the same compound, the TGI [23] was 3.07 µM, the GI50 [24] was 2.36 µM and the TGI [24] was 5.71 µM. For the same compound, the GI50 [25] was 1.79 µM, the TGI [25] was 3.67 µM and the GI50 [26] was 2.05 µM. The TGI [26] was 3.73 µM, the GI50 [27] was 1.66 µM and the TGI [27] was 3.2 µM. For the same compound, the GI50 [28] was 2.13 µM, the TGI [28] was 4.51 µM and the GI50 [29] was 2.41 µM. For the same compound, the TGI [29] was 5.47 µM, the GI50 [30] was 1.85 µM and the TGI [30] was 3.63 µM. It also gave a GI50 [31] of 1.67 µM, a TGI [31] of 3.08 µM and a GI50 [32] of 1.66 µM. For the same compound, the TGI [32] was 3.18 µM, the GI50 [33] was 2.18 µM and the TGI [33] was 4.78 µM. It also gave a GI50 [34] of 1.75 µM, a TGI [34] of 3.31 µM and a GI50 [35] of 1.79 µM. The TGI [35] was 3.32 µM, the GI50 [36] was 1.75 µM and the TGI [36] was 3.16 µM. For the same compound, the GI50 [37] was 16.3 µM, the TGI [37] was 32.8 µM and the GI50 [38] was 1.79 µM. The TGI [38] was 3.21 µM, the GI50 [39] was 1.77 µM and the TGI [39] was 3.17 µM. For the same compound, the GI50 [40] was 1.72 µM, the TGI [40] was 3.14 µM and the GI50 [41] was 1.8 µM. For the same compound, the TGI [41] was 3.56 µM, the GI50 [42] was 1.67 µM and the TGI [42] was 3.08 µM. It also gave a GI50 [43] of 1.9 µM, a TGI [43] of 4.72 µM and a GI50 [44] of 1.69 µM. For the same compound, the TGI [44] was 3.66 µM, the GI50 [45] was 1.8 µM and the TGI [45] was 3.9 µM. The GI50 [46] was 1.81 µM, the TGI [46] was 3.25 µM and the GI50 [47] was 1.81 µM. The TGI [47] was 3.26 µM, the GI50 [48] was 1.77 µM and the TGI [48] was 3.3 µM. It also gave a GI50 [49] of 1.71 µM, a TGI [49] of 3.25 µM and a GI50 [50] of 1.69 µM. It also gave a TGI [50] of 3.12 µM.
